According to PubChem BioAssay (NCI):
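48-hour exposure; five concentrations; linearly interpolated endpoints. TGI: total growth inhibition.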

Columns and labels:
Experiment in all cases: NCI-60 cell line screen, 48 h
MALME-3M melanoma = test system: MALME-3M melanoma
A549 NSCLC = test system: A549 NSCLC
HOP-92 NSCLC = test system: HOP-92 NSCLC
HCT-116 colon = test system: HCT-116 colon
U251 CNS = test system: U251 CNS
OVCAR-5 ovarian = test system: OVCAR-5 ovarian
SF-268 CNS = test system: SF-268 CNS
786-0 renal = test system: 786-0 renal
HS 578T breast = test system: HS 578T breast
MDA-MB-231 breast = test system: MDA-MB-231 breast
SK-OV-3 ovarian = test system: SK-OV-3 ovarian
OVCAR-3 ovarian = test system: OVCAR-3 ovarian
OVCAR-8 ovarian = test system: OVCAR-8 ovarian
T-47D breast = test system: T-47D breast
NCI/ADR-RES ovarian = test system: NCI/ADR-RES ovarian
KM12 colon = test system: KM12 colon
SNB-19 CNS = test system: SNB-19 CNS
A498 renal = test system: A498 renal
LOX IMVI melanoma = test system: LOX IMVI melanoma
OVCAR-4 ovarian = test system: OVCAR-4 ovarian
SNB-75 CNS = test system: SNB-75 CNS
NCI-H522 lung = test system: NCI-H522 lung
MDA-N = test system: MDA-N
PC-3 prostate = test system: PC-3 prostate
SK-MEL-5 melanoma = test system: SK-MEL-5 melanoma
MOLT-4 leukemia = test system: MOLT-4 leukemia
NCI-H23 lung = test system: NCI-H23 lung
MCF7 breast = test system: MCF7 breast
SN12C renal = test system: SN12C renal
RXF 393 renal = test system: RXF 393 renal
SF-295 CNS = test system: SF-295 CNS
HCT-15 colon = test system: HCT-15 colon
MDA-MB-435 = test system: MDA-MB-435
M14 melanoma = test system: M14 melanoma
SF-539 CNS = test system: SF-539 CNS
SK-MEL-28 melanoma = test system: SK-MEL-28 melanoma
UO-31 renal = test system: UO-31 renal
SW-620 colon = test system: SW-620 colon
HT29 colon = test system: HT29 colon
HL-60(TB) leukemia = test system: HL-60(TB) leukemia
TK-10 renal = test system: TK-10 renal
DU-145 prostate = test system: DU-145 prostate
CAKI-1 renal = test system: CAKI-1 renal
K-562 leukemia = test system: K-562 leukemia
HOP-62 NSCLC = test system: HOP-62 NSCLC
CCRF-CEM leukemia = test system: CCRF-CEM leukemia
IGROV1 ovarian = test system: IGROV1 ovarian
COLO 205 colon = test system: COLO 205 colon
EKVX NSCLC = test system: EKVX NSCLC
NCI-H226 lung = test system: NCI-H226 lung
RPMI-8226 leukemia = test system: RPMI-8226 leukemia
SK-MEL-2 melanoma = test system: SK-MEL-2 melanoma
ACHN renal = test system: ACHN renal
UACC-257 melanoma = test system: UACC-257 melanoma
NCI-H460 lung = test system: NCI-H460 lung
SR leukemia = test system: SR leukemia
HCC-2998 colon = test system: HCC-2998 colon
UACC-62 melanoma = test system: UACC-62 melanoma

SMILES: O=C1NC(N2CCOCC2)=N/C1=C\c1ccccc1O
- TGI (MALME-3M melanoma): > 100 µM
- TGI (A549 NSCLC): > 100 µM
- TGI (HOP-92 NSCLC): > 100 µM
- TGI (HCT-116 colon): > 100 µM
- TGI (U251 CNS): > 100 µM
- TGI (OVCAR-5 ovarian): > 100 µM
- TGI (SF-268 CNS): > 100 µM
- TGI (786-0 renal): > 100 µM
- TGI (HS 578T breast): > 100 µM
- TGI (MDA-MB-231 breast): > 100 µM
- TGI (SK-OV-3 ovarian): > 100 µM
- TGI (OVCAR-3 ovarian): > 100 µM
- TGI (OVCAR-8 ovarian): > 100 µM
- TGI (T-47D breast): > 100 µM
- TGI (NCI/ADR-RES ovarian): > 100 µM
- TGI (KM12 colon): > 100 µM
- TGI (SNB-19 CNS): > 100 µM
- TGI (A498 renal): > 100 µM
- TGI (LOX IMVI melanoma): > 100 µM
- TGI (OVCAR-4 ovarian): > 100 µM
- TGI (SNB-75 CNS): > 100 µM
- TGI (NCI-H522 lung): > 100 µM
- TGI (MDA-N): > 100 µM
- TGI (PC-3 prostate): > 100 µM
- TGI (SK-MEL-5 melanoma): > 100 µM
- TGI (MOLT-4 leukemia): > 100 µM
- TGI (NCI-H23 lung): > 100 µM
- TGI (MCF7 breast): > 100 µM
- TGI (SN12C renal): > 100 µM
- TGI (RXF 393 renal): > 100 µM
- TGI (SF-295 CNS): > 100 µM
- TGI (HCT-15 colon): > 100 µM
- TGI (MDA-MB-435): > 100 µM
- TGI (M14 melanoma): > 100 µM
- TGI (SF-539 CNS): > 100 µM
- TGI (SK-MEL-28 melanoma): > 100 µM
- TGI (UO-31 renal): > 100 µM
- TGI (SW-620 colon): > 100 µM
- TGI (HT29 colon): > 100 µM
- TGI (HL-60(TB) leukemia): > 100 µM
- TGI (TK-10 renal): > 100 µM
- TGI (DU-145 prostate): > 100 µM
- TGI (CAKI-1 renal): > 100 µM
- TGI (K-562 leukemia): > 100 µM
- TGI (HOP-62 NSCLC): > 100 µM
- TGI (CCRF-CEM leukemia): > 100 µM
- TGI (IGROV1 ovarian): > 100 µM
- TGI (COLO 205 colon): > 100 µM
- TGI (EKVX NSCLC): > 100 µM
- TGI (NCI-H226 lung): > 100 µM
- TGI (RPMI-8226 leukemia): > 100 µM
- TGI (SK-MEL-2 melanoma): > 100 µM
- TGI (ACHN renal): > 100 µM
- TGI (UACC-257 melanoma): > 100 µM

SMILES: CC(NC(=O)c1ccc(OP(=O)(OCC2=CC(=O)c3ccccc3C2=O)N(C)CCCCCl)cc1)c1ccc(OCC2CCCCC2)c(C(N)=O)c1 (stereo not drawn)
- TGI (MALME-3M melanoma): 3.97 µM
- TGI (A549 NSCLC): 5.6 µM
- TGI (HOP-92 NSCLC): 19.6 µM
- TGI (HCT-116 colon): 27.5 µM
- TGI (NCI-H460 lung): 22.9 µM
- TGI (U251 CNS): 22.3 µM
- TGI (OVCAR-5 ovarian): 70.6 µM
- TGI (SF-268 CNS): 26.2 µM
- TGI (786-0 renal): 28.6 µM
- TGI (HS 578T breast): 21.7 µM
- TGI (MDA-MB-231 breast): 21.3 µM
- TGI (SK-OV-3 ovarian): 48.8 µM
- TGI (OVCAR-3 ovarian): 17.4 µM
- TGI (OVCAR-8 ovarian): 29.6 µM
- TGI (T-47D breast): 10.5 µM
- TGI (NCI/ADR-RES ovarian): 32.5 µM
- TGI (KM12 colon): 30.3 µM
- TGI (SNB-19 CNS): 35.1 µM
- TGI (LOX IMVI melanoma): 17.6 µM
- TGI (SNB-75 CNS): 19.5 µM
- TGI (SR leukemia): 34.3 µM
- TGI (NCI-H522 lung): 29 µM
- TGI (MDA-N): 13 µM
- TGI (PC-3 prostate): 58.6 µM
- TGI (SK-MEL-5 melanoma): 2.02 µM
- TGI (MOLT-4 leukemia): 30 µM
- TGI (NCI-H23 lung): 10.2 µM
- TGI (MCF7 breast): 24.9 µM
- TGI (SN12C renal): 26.2 µM
- TGI (SF-295 CNS): 19.2 µM
- TGI (HCT-15 colon): 24.7 µM
- TGI (MDA-MB-435): 5.68 µM
- TGI (M14 melanoma): 13 µM
- TGI (SF-539 CNS): 28.5 µM
- TGI (SK-MEL-28 melanoma): 27.2 µM
- TGI (UO-31 renal): 21.9 µM
- TGI (SW-620 colon): 38.3 µM
- TGI (HT29 colon): 31.2 µM
- TGI (HL-60(TB) leukemia): 41.1 µM
- TGI (TK-10 renal): 61.7 µM
- TGI (DU-145 prostate): 16.7 µM
- TGI (CAKI-1 renal): 35.5 µM
- TGI (K-562 leukemia): 43.1 µM
- TGI (HCC-2998 colon): 4.05 µM
- TGI (HOP-62 NSCLC): 32.9 µM
- TGI (CCRF-CEM leukemia): 30.6 µM
- TGI (IGROV1 ovarian): 21.6 µM
- TGI (COLO 205 colon): 20.6 µM
- TGI (NCI-H226 lung): 24.2 µM
- TGI (RPMI-8226 leukemia): 30.6 µM
- TGI (UACC-62 melanoma): 21.4 µM
- TGI (SK-MEL-2 melanoma): 30.2 µM
- TGI (ACHN renal): 29.2 µM
- TGI (UACC-257 melanoma): 18.6 µM
